Test results reported in ChEMBL document CHEMBL1201862, “PubChem BioAssay data set” (2004).
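48-hour exposure; five concentrations; linearly interpolated endpoints. GI50 marks 50% less growth.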 Activity calls are given as the source filed them. No stated cut-off is given here; in the data, active = GI50 up to about 1.1 µM and inactive = higher.

Experiments:
Test in all cases: NCI-60 cell line screen, 48 h
SNB-75 = test system: SNB-75
T47D = test system: T47D
A549 = test system: A549
SF-539 = test system: SF-539
KM12 = test system: KM12
SK-MEL-28 = test system: SK-MEL-28
SR = test system: SR
OVCAR-3 = test system: OVCAR-3
KM-20L2 = test system: KM-20L2
UACC-257 = test system: UACC-257
NCI-H226 = test system: NCI-H226
SW-620 = test system: SW-620
HL-60 = test system: HL-60
Malme-3M = test system: Malme-3M
OVCAR-8 = test system: OVCAR-8
HOP-92 = test system: HOP-92
SK-MEL-2 = test system: SK-MEL-2
NCI-H460 = test system: NCI-H460
SN12C = test system: SN12C
HCT-15 = test system: HCT-15

Measured: GI50

CCNCCCCNCCCCNCCCCNCCCCNCC
> 100000 nM: HCT-15
inactive: SNB-75 16700 nM | T47D 6170 nM | A549 20700 nM | SF-539 70100 nM | KM12 76600 nM | SK-MEL-28 9140 nM | SR 56400 nM | OVCAR-3 > 100000 nM | KM-20L2 > 100000 nM | UACC-257 40100 nM | NCI-H226 > 100000 nM | SW-620 > 100000 nM | HL-60 9040 nM | Malme-3M 6490 nM | OVCAR-8 > 100000 nM | HOP-92 30800 nM | SK-MEL-2 48100 nM | NCI-H460 32000 nM | SN12C > 95100 nM

COC1(OC)C2(Cl)C(Cl)=C(Cl)C1(Cl)C1c3ccc(C(C)=O)c4cccc(c34)C12 (centres undefined)
inactive: SNB-75 25900 nM | T47D 20800 nM | A549 23000 nM | SF-539 64000 nM | KM12 11700 nM | SK-MEL-28 42800 nM | SR 13700 nM | OVCAR-3 26300 nM | KM-20L2 4530 nM | UACC-257 25600 nM | NCI-H226 17000 nM | SW-620 > 53600 nM | HL-60 4420 nM | Malme-3M 12300 nM | OVCAR-8 48600 nM | HOP-92 2890 nM | SK-MEL-2 17300 nM | NCI-H460 14500 nM | SN12C 10600 nM
6240 nM: HCT-15

CCC/C(=N\NC(=S)N1CC2CCC(CC2)C1)c1ccccn1
inactive: NCI-H226 1820 nM
85.3 nM: HCT-15
active: SNB-75 185 nM | T47D 4.25 nM | A549 414 nM | SF-539 594 nM | KM12 144 nM | SK-MEL-28 783 nM | SR 49.5 nM | OVCAR-3 254 nM | KM-20L2 14.5 nM | UACC-257 25.2 nM | SW-620 56.6 nM | HL-60 9.57 nM | OVCAR-8 87.7 nM | HOP-92 19 nM | SK-MEL-2 81.3 nM | NCI-H460 220 nM | SN12C 395 nM

CC[C@H]1CN2CCc3cc(OC)c(OC)cc3[C@@H]2C[C@@H]1C[C@H]1NCCc2c1[nH]c1ccc(O)cc21 [TUBULOSINE]
active: SNB-75 < 10 nM | T47D < 10.6 nM | A549 < 10 nM | SF-539 16.4 nM | KM12 24.6 nM | SK-MEL-28 21.1 nM | SR < 215 nM | OVCAR-3 27.6 nM | KM-20L2 15.3 nM | UACC-257 58.2 nM | NCI-H226 < 11.3 nM | SW-620 < 11.9 nM | HL-60 < 10 nM | Malme-3M 42.1 nM | OVCAR-8 12.5 nM | HOP-92 10.5 nM | SK-MEL-2 13.7 nM | NCI-H460 10.2 nM | SN12C < 10 nM
384 nM: HCT-15
